In general, IC50 refers to the point on the concentration scale where inhibition reaches its midpoint.

Experiment [1] deals with T1, Recombinant human LSD1 (172–852 aa) (Homo sapiens, UniProt O60341). The experiment is described as follows: biochemical.
Method: (§1) LSD1 or LSD2 enzyme inhibition assay was performed with Lance Ultra LSD1 Histone H3-Lysine 4 Demethylase Assay kit (Perkin Elmer) according to the manufacturer's protocol. […] The test was carried out in triplicate. And the IC50 data was calculated using the software GraphPad Prism 5, and chosen the equation “sigmoidal dose–response (variable slope)” for curve fitting.
Experiment [2] deals with T1, Recombinant human LSD1 (172–852 aa). The conditions noted are these: for fold reduction in LSD1 inhibitory potency vs 28a, 28b: 29a, 29b vs 28a; for fold reduction in LSD1 inhibitory potency vs 23a, 23b: 24a, 24b vs 23a; for LSD1 IC50 level in words: potency range in words; for fold more potent at LSD1 than 8a and 8b, respectively: 21a vs 8a, 21b vs 8b.
Method: as §1
Another experiment concerns the target T2, full-length LSD2 (Homo sapiens, UniProt Q8NB78).
T2 sequence (Q8NB78 1-822): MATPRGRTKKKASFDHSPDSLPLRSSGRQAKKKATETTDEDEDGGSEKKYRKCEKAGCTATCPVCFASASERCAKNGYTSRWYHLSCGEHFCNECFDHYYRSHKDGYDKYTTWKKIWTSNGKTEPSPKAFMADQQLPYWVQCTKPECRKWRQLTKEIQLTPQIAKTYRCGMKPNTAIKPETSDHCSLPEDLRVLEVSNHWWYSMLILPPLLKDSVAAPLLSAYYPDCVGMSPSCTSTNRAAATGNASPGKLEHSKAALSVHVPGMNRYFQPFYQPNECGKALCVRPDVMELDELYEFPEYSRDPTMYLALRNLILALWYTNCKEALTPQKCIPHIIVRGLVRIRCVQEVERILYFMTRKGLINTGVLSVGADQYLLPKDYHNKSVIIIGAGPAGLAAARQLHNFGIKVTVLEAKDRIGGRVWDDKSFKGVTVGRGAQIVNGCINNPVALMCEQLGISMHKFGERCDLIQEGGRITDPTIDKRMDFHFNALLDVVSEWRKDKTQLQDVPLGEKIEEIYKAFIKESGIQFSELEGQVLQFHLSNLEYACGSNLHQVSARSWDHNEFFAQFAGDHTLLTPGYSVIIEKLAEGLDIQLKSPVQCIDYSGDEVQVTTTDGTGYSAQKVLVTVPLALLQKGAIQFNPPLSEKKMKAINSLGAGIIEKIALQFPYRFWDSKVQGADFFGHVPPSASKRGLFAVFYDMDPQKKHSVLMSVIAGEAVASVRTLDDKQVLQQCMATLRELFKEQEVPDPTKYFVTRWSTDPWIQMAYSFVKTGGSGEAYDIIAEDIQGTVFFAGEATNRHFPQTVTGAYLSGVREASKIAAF
The experiment is described as follows: LSD2 inhibition assay (Lance Ultra kit, TR-FRET). In kind it is biochemical. (In general: Time-resolved FRET reads energy transfer from a long-lived donor to a nearby acceptor.)

For another experiment, the target named is T3, MAO-B (Homo sapiens, UniProt P27338).
T3 sequence (P27338 1-520): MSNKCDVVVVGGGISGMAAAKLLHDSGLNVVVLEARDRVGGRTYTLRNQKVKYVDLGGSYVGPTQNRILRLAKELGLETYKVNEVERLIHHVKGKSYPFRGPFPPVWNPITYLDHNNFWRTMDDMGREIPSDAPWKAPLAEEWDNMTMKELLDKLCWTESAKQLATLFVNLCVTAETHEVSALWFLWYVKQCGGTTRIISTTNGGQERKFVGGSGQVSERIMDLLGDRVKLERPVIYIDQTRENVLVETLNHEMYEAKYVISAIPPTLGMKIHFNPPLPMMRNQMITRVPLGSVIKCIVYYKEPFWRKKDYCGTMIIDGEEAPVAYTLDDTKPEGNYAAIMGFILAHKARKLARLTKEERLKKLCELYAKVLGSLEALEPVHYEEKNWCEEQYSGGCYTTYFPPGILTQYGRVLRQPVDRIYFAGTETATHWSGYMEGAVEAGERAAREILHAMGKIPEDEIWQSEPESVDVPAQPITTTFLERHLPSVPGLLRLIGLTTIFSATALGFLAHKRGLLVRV
The experiment can be described thus: biochemical.

For the next experiment, the target named is T4, MAO-A (Homo sapiens, UniProt P21397).
T4 sequence (P21397 1-527): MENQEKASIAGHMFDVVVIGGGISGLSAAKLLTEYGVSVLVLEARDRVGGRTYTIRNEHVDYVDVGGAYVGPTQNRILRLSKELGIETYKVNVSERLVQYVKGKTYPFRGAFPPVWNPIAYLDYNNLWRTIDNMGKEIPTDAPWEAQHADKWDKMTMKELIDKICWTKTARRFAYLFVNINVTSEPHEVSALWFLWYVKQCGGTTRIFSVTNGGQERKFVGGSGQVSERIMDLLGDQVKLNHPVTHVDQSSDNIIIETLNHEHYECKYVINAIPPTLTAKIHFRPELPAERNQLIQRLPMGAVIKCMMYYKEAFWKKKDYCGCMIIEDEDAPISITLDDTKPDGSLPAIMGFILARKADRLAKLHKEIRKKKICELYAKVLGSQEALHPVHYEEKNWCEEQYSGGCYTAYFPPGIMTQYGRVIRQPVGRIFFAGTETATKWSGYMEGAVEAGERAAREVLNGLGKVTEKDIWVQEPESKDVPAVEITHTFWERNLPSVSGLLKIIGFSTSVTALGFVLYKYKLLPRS
The experiment is described as follows: biochemical.

Setting [3] is: MAO-B, IC50, Table 1, mean ± SEM, eight-point experiments, three independent experiments.
Where [4] appears, read: MAO-A, IC50, Table 1, mean ± SEM, eight-point experiments, three independent experiments.

Each structure is given as a SMILES string. Where a name gives a salt, the structure may show the parent alone. Where only a bound is given, the exact number is not on record here.

Method for MAO-A: (§2) MAO-A and MAO-B enzymes were purchased from Sigma-Aldrich and the inhibition assay was tested with Promega MAO-Glo™ Assay kit according to the manufacturer's protocol. The luminescent signals were detected using Envision (PerkinElmer). The test was carried out in triplicate. And the IC50 data was calculated using the software GraphPad Prism 5, and chosen the equation “sigmoidal dose–response (variable slope)” for curve fitting.
Method for MAO-B: as §2
Method for full-length LSD2: as §1

Turning to `Cl.N[C@@H]1CC12CCc1cc(-c3ccc(F)cc3)ccc12` (stereo in doubt) [Compound 29a, (2R)-5′-(4-Fluorophenyl)-2′,3′-dihydrospiro[cyclopropane-1,1′-inden]-2-amine hydrochloride], the IC50 in experiment [1] was 300 ± 10 nM. Further, the “fold reduction in LSD1 inhibitory potency vs 28a, 28b” value in experiment [2] is listed as “approximately 3 fold”.

`Fc1cccnc1CN[C@H]1CC12CCc1ccccc12` (stereo in doubt) [Compound 24b, (2S)-N-((3-Fluoropyridin-2-yl)methyl)-2′,3′-dihydrospiro[cyclopropane-1,1′-inden]-2-amine]: the IC50 in experiment [1] stood at 470 ± 20 nM. Moreover, the “fold reduction in LSD1 inhibitory potency vs 23a, 23b” value in experiment [2] is recorded as at least 4 fold.

On to `COc1ccc(F)cc1CN[C@H]1CC12CCc1cc(-c3ccccc3)ccc12` (stereo in doubt) [Compound 30b, (2S)-N-(5-Fluoro-2-methoxybenzyl)-5′-phenyl-2′,3′-dihydrospiro[cyclopropane-1,1′-inden]-2-amine], for which the IC50 in experiment [1] was 4400 ± 300 nM. The “LSD1 IC50 level in words” value in experiment [2] is listed as “single digit micromolar range”.

`COc1cc(F)ccc1CN[C@@H]1CC12CCc1ccccc12` (stereo in doubt) [Compound 18a, (2R)-N-(4-Fluoro-2-methoxybenzyl)-2′,3′-dihydrospiro[cyclopropane-1,1′-inden]-2-amine]: the 50% inhibitory concentration (IC50) amounted to 660 ± 60 nM on full-length LSD2, 8700 ± 1100 nM against MAO-B (setting [3]), 7.1 ± 1.3 nM in experiment [1] and 2200 ± 700 nM against MAO-A (setting [4]).

With `COc1ccc(F)cc1CN[C@@H]1CC12CCc1cc(-c3ccc(F)cc3)ccc12` (stereo in doubt) [Compound 32a, (2R)-N-(5-Fluoro-2-methoxybenzyl)-5′-(4-fluorophenyl)-2′,3′-dihydrospiro[cyclopropane-1,1′-inden]-2-amine], the IC50 in experiment [1] amounted to 2600 ± 500 nM. The “LSD1 IC50 level in words” value in experiment [2] is on record as “single digit micromolar range”.

For `COc1ccc(F)cc1CN[C@@H]1CC12CCc1cc(-c3ccccc3)ccc12` (stereo in doubt) [Compound 30a, (2R)-N-(5-Fluoro-2-methoxybenzyl)-5′-phenyl-2′,3′-dihydrospiro[cyclopropane-1,1′-inden]-2-amine], in experiment [1], the IC50 was 1700 ± 100 nM. Also, the “LSD1 IC50 level in words” value in experiment [2] is given as “single digit micromolar range”.

Turning to `c1cncc(CN[C@H]2CC23CCc2ccccc23)c1` (mixture of isomers) [Compound 21b, (2S)-N-(Pyridin-3-ylmethyl)-2′,3′-dihydrospiro[cyclopropane-1,1′-inden]-2-amine], the IC50 against MAO-B (setting [3]) was determined as 28000 ± 6000 nM; in experiment [1] it was 20 ± 3 nM; against MAO-A (setting [4]), 6000 ± 1100 nM. In addition, in experiment [2], the “fold more potent at LSD1 than 8a and 8b, respectively” value amounted to 39 fold.

For the compound `COc1ccc(F)cc1CN[C@@H]1CC12CCc1ccccc12` (stereo in doubt) [Compound 17a, (2R)-N-(5-Fluoro-2-methoxybenzyl)-2′,3′-dihydrospiro[cyclopropane-1,1′-inden]-2-amine], the IC50 against full-length LSD2 worked out at 800 ± 270 nM; against MAO-B (setting [3]), 2300 ± 400 nM; in experiment [1] it was 6.6 ± 1.5 nM; against MAO-A (setting [4]) it was 920 ± 180 nM.

With `Cl.N[C@H]1CC12CCc1cc(-c3ccc(F)cc3)ccc12` (stereo in doubt) [Compound 29b, (2S)-5′-(4-Fluorophenyl)-2′,3′-dihydrospiro[cyclopropane-1,1′-inden]-2-amine hydrochloride], the IC50 in experiment [1] came out at 6000 ± 800 nM. In addition, the “fold reduction in LSD1 inhibitory potency vs 28a, 28b” value in experiment [2] is “approximately 3 fold”.

For `COc1ccc(CN[C@@H]2CC23CCc2cc(-c4ccccc4)ccc23)c(Cl)c1OC` (stereo in doubt) [Compound 31a, (2R)-N-(2-Chloro-3,4-dimethoxybenzyl)-5′-phenyl-2′,3′-dihydrospiro[cyclopropane-1,1′-inden]-2-amine], the IC50 in experiment [1] was found to be 8900 ± 1200 nM. In experiment [2], the “LSD1 IC50 level in words” value is “single digit micromolar range”.

Take `COc1ncccc1CN[C@H]1CC12CCc1ccccc12` (stereo in doubt) [Compound 22b, (2S)-N-((2-Methoxypyridin-3-yl)methyl)-2′,3′-dihydrospiro[cyclopropane-1,1′-inden]-2-amine]: the IC50 is 68000 ± 8000 nM against MAO-B (setting [3]), 10 ± 5 nM in experiment [1] and over 100000 nM against MAO-A (setting [4]).

Turning to `Fc1ncccc1CN[C@H]1CC12CCc1ccccc12` (stereo in doubt) [Compound 23b, (2S)-N-((2-Fluoropyridin-3-yl)methyl)-2′,3′-dihydrospiro[cyclopropane-1,1′-inden]-2-amine], the IC50 against full-length LSD2 is 8700 ± 800 nM; on MAO-B (setting [3]), 29000 ± 4000 nM; in experiment [1], 70 ± 3 nM; at MAO-A (setting [4]), 9800 ± 800 nM. The “fold less potent at LSD1 than the unsubstituted derivatives 21a and 21b” value in experiment [2] (23a, 23b vs 21a, 21b) is reported as “approximately 4 fold”.

On to `Fc1cccnc1CN[C@@H]1CC12CCc1ccccc12` (stereo in doubt) [Compound 24a, (2R)-N-((3-Fluoropyridin-2-yl)methyl)-2′,3′-dihydrospiro[cyclopropane-1,1′-inden]-2-amine], for which the IC50 in experiment [1] was 250 ± 10 nM. In addition, the “fold reduction in LSD1 inhibitory potency vs 23a, 23b” value in experiment [2] is at least 4 fold.

In the case of `COc1ccc(CNC2CC23CCc2ccccc23)cc1OC` [Compound 19b, (2S)-N-(3,4-Fimethoxybenzyl)-2′,3′-dihydrospiro[cyclopropane-1,1′-inden]-2-amine], the IC50 against MAO-B (setting [3]) came out at 27000 ± 4000 nM; against MAO-A (setting [4]) it was 3100 ± 200 nM.

For the compound `COc1ncccc1CN[C@@H]1CC12CCc1ccccc12` (stereo in doubt) [Compound 22a, (2R)-N-((2-Methoxypyridin-3-yl)methyl)-2′,3′-dihydrospiro[cyclopropane-1,1′-inden]-2-amine], the results for the IC50 (against MAO-B (setting [3]); in experiment [1]; against MAO-A (setting [4])) were 47000 ± 5000 nM, 32 ± 6 nM and over 100000 nM, respectively. In addition, the “fold less potent at LSD1 than the cis-isomer” value in experiment [2] (22a vs 22b) was 3 fold.

For the compound `N[C@@H]1CC12CCc1cc(-c3ccccc3)ccc12` (stereo in doubt) [Compound 28a, (2R)-5′-phenyl-2′,3′-dihydrospiro[cyclopropane-1,1′-inden]-2-amine hydrochloride], the IC50 at full-length LSD2 amounted to 94000 nM; against MAO-B (MAO-B IC50) it was 170 nM; in experiment [1], 100 ± 10 nM; against MAO-A (MAO-A IC50), 460 nM.

Turning to `c1cncc(CN[C@@H]2CC23CCc2ccccc23)c1` (mixture of isomers) [Compound 21a, (2R)-N-(Pyridin-3-ylmethyl)-2′,3′-dihydrospiro[cyclopropane-1,1′-inden]-2-amine], the IC50 against MAO-B (setting [3]) was 15000 ± 1000 nM; in experiment [1] it was 17 ± 3 nM; at MAO-A (setting [4]), 10800 ± 1100 nM. For the same compound, the “fold more potent at LSD1 than 8a and 8b, respectively” value in experiment [2] was 10 fold.

On to `COc1ccc(F)cc1CN[C@H]1CC12CCc1ccccc12` (stereo in doubt) [Compound 17b, (2S)-N-(5-Fluoro-2-methoxybenzyl)-2′,3′-dihydrospiro[cyclopropane-1,1′-inden]-2-amine], for which the IC50 at full-length LSD2 came out at 1700 ± 500 nM; at MAO-B (setting [3]), 27000 ± 4000 nM; in experiment [1] it was 17 ± 3 nM; against MAO-A (setting [4]) it was 120 ± 10 nM.

For the origin of these results see paper PMC9077246, “Novel spirocyclic tranylcypromine derivatives as lysine-specific demethylase 1 (LSD1) inhibitors” (RSC Advances, 2018).
